Experiment [1] relates to S1 -S5 subunits of the toxin. Briefly: Labelled iodoacetate incorporation into toxin subunits, electrophoresis and x-ray film (Examples Two and Six). Also on record: species or system Bordetella pertussis. How it is done:
Pertussis toxin (2.5 μg) was incubated for thirty minutes at 37° C. in 50 μl of 50 mM Tris-HCl (pH 8.0) with or without combinations of the activators ATP, CHAPS and DTT. During this incubation, ATP was 1 mM, CHAPS was 1 weight percent, and DTT was 0.5 mM, when present. Following this incubation, 75 nmol (1.34 microCi of iodo[^14 C]acetate and 25 μl of water were then added, and the tubes incubated for an additional thirty minutes under nitrogen gas at 30° C. in the dark. This labelling reaction was terminated by adding 1 ml of ice-cold water containing 7.5 mM non-radioactive iodoacetate, 2.5 μg bovine serum albumin, and 150 μg sodium deoxycholate. After ten minutes on ice, 100 μl 72% triochloroacetic acid was added, and the precipitate recovered by centrifugation. Sodium dodecylsulfate and beta-mercaptoethanol were added, the sample heated to 95° C. for one minute, and then electrophoresed using 15% polyacrylamide gels. The fixed gels were then treated, dried and used to expose x-ray film at -70° C.
Pertussis toxin was incubated first at 37° C. for fifteen minutes in […] buffer A (100 mM Tris-HCl, pH 8.0 with 1 mM NaEDTA). EDTA was added to chelate divalent cations, which may promote oxidation of free --SH groups. During this incubation, DTT and ATP were present in concentrations of 1 mM each, and CHAPS was present in a concentration of 1 weight percent. Labelled iodoacetate was then added ([…], 12.5 mM), and the tube incubated on ice for twenty hours. The sample was then mixed with sodium dodecylsulfate and β-mercaptoethanol, heated at 95° C. for one minute, and electrophoresed. After electrophoresis, the gel was fixed, treated with Fluorohance (Research Products International), dried and used to expose x-ray film.

The next experiment addresses pertussis toxin (Bordetella pertussis, UniProt P04977). Briefly: NADase activity of pertussis toxin after activation and treatment with alkylating reagent (Example One). It is filed as biochemical. An excerpt:
The ADP-ribosylating activity of the pertussis toxin can be detected as a nicotinamide-adenine dinucleotide-glycohydrolase (NADase) activity, which can be conveniently assayed through the use of [nicotinamide-^14 C] or [nicotinamide-^3 H] NAD. NAD consists of ADP-ribose linked to nicotinimide, and thus the extent of the release of ADP-ribose from NAD is an indication of the ability of the toxin to cause ill effects. In conducting this assay of the hydrolysis of labelled NAD, ion-exchange column chromatography was employed to resolve the product from the substrate according to the method described by Moss et al., J. Biol. Chem. 258, 11879 (1983) which is incorporated herein by reference. However, several modifications to this method were employed. First, a QAE-Sephadex resin was employed, as was a [nicotinamide-^3 H] NAD. Specifically, a 2 ml QAE-Sephadex column was first washed with 10 ml 1NHCl, followed by 10 ml H2 O, 20 ml 0.5M Tris-HCl pH 7.0, and 40 ml H2 O. [^3 H] NAD was applied, and the column washed with 20 ml water to elute impurities. Purified [^3 H] NAD was eluted with 0.25M NaCl, and stored in small aliquots at -70° C. The purified [^3 H] NAD contributed 50 mM NaCl (final concentration) to the NADase assays.
Before the end of the reaction, 2 ml QAE-Sephadex columns were treated with 10 ml 0.1M imidazole-HCl pH 7.0 with 1.0M NaCl, followed by 40 ml water. The NADase reaction (in 100 μl) was terminated by adding 0.85 ml of ice-cold water, and the entire 0.95 ml was pipetted into a treated QAE column. The labelled nicotinamide was then eluted with 3 ml of water directly into a scintillation vial and counted. The absorbed labelled NAD was then eluted into radioactive waste with 10 ml 0.1M imidazole-HCl pH 7.0 with 1.0M NaCl, and the column stored partially immersed in a water bath until the next assay.
In order to determine if any active toxin remained after the inactivation, a large excess of sulfhydryl reductant was added to each tube to scavenge unreacted sulfhydryl reagent. The NADase activity of the preparation was then measured. The three incubations were performed under a nitrogen atmosphere using degassed solutions to prevent oxidation of sulfhydryl groups which would prevent the sulfhydryl reagent from modifying the sulfhydryl group.
The pertussis toxin in the Examples comprised 50 μg of the toxin in a 500 μl solution of 10 mM sodium phosphate-50 mM sodium chloride-water solution having a pH of 7. The enzymatic activity was detected as the hydrolysis of nicotinamide labelled NAD and ion-exchange column chromatography to resolve the product from the substrate. Unless otherwise noted, the assay was initiated by adding 0.5 to 2.5 μg of the toxin to a reaction mixture for a final volume of 100 μl. The NADase reaction was terminated by adding 0.85 ml of ice-cold water. The entire 0.95 ml was then pipetted into a QAE-Sephadex column (chloride form) and the labelled nicotinamide eluted with 3 ml of water directly into a scintillation vial and counted. […] One unit of NADase activity is defined as 1 pmol NAD hydrolyzed per hour.
One-half microgram of pertussis toxin was incubated for thirty minutes at […] in 100 mM Tris-HCl (pH 8.0), with or without activators, in a volume of 50 μl. When present, ATP and pyrophosphate were present in a concentration of 2 mM, CHAPS at 2 weight percent, and DTT in a concentration of either 2 mM (trial 1) or 1 mM (trial 2). 10 μl of water with or without iodoacetate or N-ethylmaleimide was then added and a second incubation conducted at 30° C. for either thirty minutes (trial 1) or fifteen minutes (trial 2). After this incubation, 10 μl of 200 mM DTT was added to each tube, and the tubes were incubated for thirty (trial 1) or sixty minutes (trial 2) on ice to scavenge the iodoacetate or N-ethylmaleimide.

Sequence of S1 -S5 subunits of the toxin (P04977 35-269 limits assumed): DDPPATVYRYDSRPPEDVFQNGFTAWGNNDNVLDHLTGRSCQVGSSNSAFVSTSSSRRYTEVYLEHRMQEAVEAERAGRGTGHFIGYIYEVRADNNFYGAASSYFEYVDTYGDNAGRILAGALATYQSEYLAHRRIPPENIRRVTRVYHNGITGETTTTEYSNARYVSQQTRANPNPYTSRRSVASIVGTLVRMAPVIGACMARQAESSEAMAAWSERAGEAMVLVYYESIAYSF
Sequence of S1 -S5 subunits of the toxin (P04978 28-226 limits assumed, further chain): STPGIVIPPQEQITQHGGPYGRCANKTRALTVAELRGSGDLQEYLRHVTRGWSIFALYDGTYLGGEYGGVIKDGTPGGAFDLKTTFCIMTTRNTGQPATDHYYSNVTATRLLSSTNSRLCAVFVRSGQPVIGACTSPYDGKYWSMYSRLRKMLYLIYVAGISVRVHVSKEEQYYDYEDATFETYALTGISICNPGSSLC
Sequence of S1 -S5 subunits of the toxin (P04979 29-227 limits assumed, further chain): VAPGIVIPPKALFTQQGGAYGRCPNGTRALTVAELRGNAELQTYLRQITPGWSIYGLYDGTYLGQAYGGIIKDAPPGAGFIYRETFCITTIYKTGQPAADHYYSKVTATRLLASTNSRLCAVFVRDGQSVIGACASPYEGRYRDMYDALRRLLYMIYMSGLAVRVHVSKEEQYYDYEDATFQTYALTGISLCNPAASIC
Sequence of S1 -S5 subunits of the toxin (P0A3R5 43-152 limits assumed, further chain): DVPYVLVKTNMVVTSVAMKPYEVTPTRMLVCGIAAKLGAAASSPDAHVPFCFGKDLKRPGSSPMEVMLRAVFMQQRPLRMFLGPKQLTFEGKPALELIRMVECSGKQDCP
Sequence of S1 -S5 subunits of the toxin (P04981 35-133 limits assumed, further chain): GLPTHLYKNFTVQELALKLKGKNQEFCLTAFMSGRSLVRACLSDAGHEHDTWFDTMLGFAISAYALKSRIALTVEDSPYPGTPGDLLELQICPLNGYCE
Sequence of pertussis toxin (P04977 35-269 limits assumed): as the sequence (P04977 35-269 limits assumed) above

Regarding `O=C(O)CI` [iodoacetate], the “Amount of label incorporated into the S1 subunit” value in experiment [1] (DTT 1 mM, ATP 1 mM, CHAPS 1%, labelled iodoacetate on ice for twenty hours) was “equal to the sum of that incorporated into the S2 and S3 subunits”. In addition, the “Carboxymethylation of toxin subunits, in words” value in experiment [1] (after activation of the toxin by DTT, ATP and CHAPS) is “carboxymethylated the enzymatic S1 subunit”. Besides, in experiment [1] (pH lowered from 8 to 7), the “Extent of carboxymethylation of the toxin” value was “decreases somewhat”. Further, the “NADase activity (%) of the activity of toxin treated the same way without alkylating agent” value on pertussis toxin (first incubation: DTT 1 mM, CHAPS 2%, ATP 2 mM, Experiment #2, second incubation 15 min at 30° C, 25 μM NAD) was 3%; on pertussis toxin (first incubation: DTT 1 mM, CHAPS 2%, pyrophosphate 2 mM, Experiment #2, second incubation 15 min at 30° C, 25 μM NAD) it was 31%; at pertussis toxin (first incubation: DTT 2 mM, CHAPS 2%, ATP 2 mM, Experiment #1, second incubation 30 min at 30° C, 125 μM NAD), 4%; on pertussis toxin (first incubation: DTT 2 mM, CHAPS 2%, pyrophosphate 2 mM, Experiment #1, second incubation 30 min at 30° C, 125 μM NAD) it was 28%; at pertussis toxin (first incubation: none, Experiment #1, second incubation 30 min at 30° C, 125 μM NAD) it was 62%; on pertussis toxin (first incubation: none, Experiment #2, second incubation 15 min at 30° C, 25 μM NAD), 87%.

For the origin of these results see patent US5032398A, “Selective modification of the catalytic subunit of pertussis toxin” (priority 1986, dated 1991).
